Results: patent US5238938A, “Indole derivatives” (Otsuka Pharmaceutical Co., Ltd., priority 1989, dated 1993)
≈ marks a conversion by molar mass, not a printed value.

What follows are compounds tested on superoxide radicals (O2^-) released from the peritoneal macrophage cells of guinea pig (assay: Inhibitory effect against superoxide radicals (O2^-) released from the peritoneal macrophage cells of guinea pig by stimulation). Conditions: Cavia porcellus, Peritoneal macrophage cell; guinea pig peritoneal macrophages 2×10^6 cells/ml; FMLP 10^-7 M; cytochrome C reduction, OD550; 37° C.; read-out: 50% inhibitory concentration (IC50), superoxide radical release.
Type: cell-based
Procedure: Inhibitory effect against superoxide radicals (O2^-) released from the peritoneal macrophage cells of guinea pig by stimulation
Mineral oil (15 ml) was intraperitoneally administered to a guinea pig, then 96 hours after the administration, the peritoneal macrophage cells were samples.
Superoxide redicals (O2^-) were determined by means of reduction of cytochrome C method according to the procedure described in an article by T. Matsumoto, K. Takeshige and S. Minakami: Biochemical and Biophysical Research Communications, Vol. 88, No. 3, pp. 974-979, (1979).
The peritoneal macrophage cells were added to make the final concentration of 2×10^6 cells/ml into 1 ml of 80 μM-cytochome C solution, and the test compound of indole derivative of the present invention was added thereto to make the test group sample. On the other hand, water was added in place of the indole derivative of the present invention to make the control group sample. Each of the test group sample and the control group sample was subjected to pure incubaiton at 37° C. for 1 minute.
As to the stimulating agent for releasing superoxide radicals (O2^-), FMLP (formylmethionyl leucyl phenylalanine) was added to make the final concentration thereof to 10^-7 M, to each of the test group sample and the control group sample. Then both samples were subjected to additional reaction by incubation for 1 minute.
Difference of the optical absorbances measured at 550 nm (OD550) of both test group and control group samples were determined, and the 50% inhibitory concentration (IC50) was obtained by calculating as the ratio of OD550 of the test group sample to that of the control group sample.

How did the IC50 turn out when `CC(C)C[C@H]1C(=O)N[C@@H](Cc2c[nH]c3ccccc23)C(=O)N1O` [Compound A-29a, (3S,6S)-1-Hydroxy-3-(indol-3-yl)methyl-6-isobutylpiperazine-2,5-dione] was run?
The IC50 was 50 µg/mL (≈ 159 µM).

`CC(C)Cc1c(=O)[nH]c(Cc2c[nH]c3ccccc23)c(OC(C)C)[n+]1[O-]` [Compound E-46a, 6-(Indol-3-yl)methyl-3-isobutyl-5-isopropoxy-1,2-dihydroipyrazin-2-one 4-oxide] was tested. Which IC50 did it give?
The IC50 was 3 µg/mL (≈ 8.44 µM).

For `CC(C)Cc1c(=O)[nH]c(-c2c[nH]c3ccccc23)c(Cl)[n+]1[O-]` [Compound E-30, 5-Chloro-6-(indol-3-yl)-3-isobutyl-1,2-dihydropyrazin-2-one 4-oxide], which IC50 is on record?
The IC50 was 8 µg/mL (≈ 25.2 µM).

For `COc1c(Cc2c[nH]c3ccc(O)cc23)[nH]c(=O)c(CC(C)C)[n+]1[O-]` [Compound E-34j, 6-[(5-Hydroxy)indol-3-yl]methyl-3-isobutyl-5-methoxy-1,2-dihydropyrazin-2-one 4-oxide], which IC50 is on record?
The IC50 was 10 µg/mL (≈ 29.1 µM).

How did the IC50 turn out when `CCc1c(Cc2c[nH]c3ccccc23)[nH]c(=O)c(CC(C)C)[n+]1[O-]` [Compound A-82b, 5-Ethyl-6-(indol-3-yl)methyl-3-isobutyl-1,2-dihydropyrazin-2-one 4-oxide] was run?
Its IC50 is 12 µg/mL (≈ 36.9 µM).

`CC(C)Cc1c(=O)[nH]c(Cc2c[nH]c3ccccc23)c([S+](C)[O-])[n+]1[O-]` (stereo not shown) [Compound E-58, 6-(Indol-3-yl)methyl-3-isobutyl-5-methylsulfinyl-1,2-dihydropyrazin-2-one 4-oxide] was tested. Which IC50 did it give?
The IC50 was 6 µg/mL (≈ 16.7 µM).

For `COc1c(Cc2c[nH]c3ccccc23)[nH]c(=O)c(Cc2c[nH]c3ccccc23)[n+]1[O-]` [Compound E-6g, 3,6-Di(indol-3-yl)methyl-5-methoxy-1,2-dihydropyrazin-2-one 4-oxide], which IC50 is on record?
The IC50 was 1.5 µg/mL (≈ 3.75 µM).

For `CC(C)C[C@@H]1C(=O)N(C)[C@@H](Cc2cn(C)c3ccccc23)C(=O)N1O` [Compound E-73a, (3S,6R)-1-Hydroxy-6-isobutyl-4-methyl-3-[(1-methyl)indol-3-yl]methylpiperazine-2,5-dione], which IC50 is on record?
Its IC50 is 2 µg/mL (≈ 5.82 µM).

For `COc1c(Cn2ccc3ccccc32)[nH]c(=O)c(CC(C)C)[n+]1[O-]` [Compound E-36p, 6-(Indol-1-yl)methyl-3-isobutyl-5-methoxy-1,2-dihydropyrazin-2-one 4-oxide], which IC50 is on record?
Its IC50 is 8 µg/mL (≈ 24.4 µM).

How did the IC50 turn out when `COc1c(Cc2c[nH]c3c(C)cccc23)[nH]c(=O)c(CC(C)C)[n+]1[O-]` [Compound E-34f, 3-Isobutyl-5-methoxy-6-[(7-methyl)indol-3-yl]methyl-1,2-dihydropyrazin-2-one 4-oxide] was run?
Its IC50 is 7 µg/mL (≈ 20.5 µM).

For `COc1c(Cc2c[nH]c3ccccc23)[nH]c(=O)c(CC2CCCCC2)[n+]1[O-]` [Compound E-6f, 3-Cyclohexylmethyl-6-(indol-3-yl)methyl-5-methoxy-1,2-dihydropyrazin-2-one 4-oxide], which IC50 is on record?
Its IC50 is 4 µg/mL (≈ 10.9 µM).

Which IC50 does the source give for `COc1nc(CC(C)C)c(=O)[nH]c1Cc1c[nH]c2ccccc12` [Compound A-16] here?
Its IC50 is 50 µg/mL (≈ 161 µM).

For `CC(C)Cc1c(=O)[nH]c(Cc2c[nH]c3ccccc23)c(S(C)(=O)=O)[n+]1[O-]` [Compound E-57d, 6-(Indol-3-yl)methyl-3-isobutyl-5-methylsulfonyl-1,2-dihydropyrazin-2-one 4-oxide], which IC50 is on record?
Its IC50 is 10 µg/mL (≈ 26.6 µM).

Which IC50 does the source give for `CC(C)Cc1c(Cl)nc(Cc2c[nH]c3ccccc23)c(=O)n1O` [Compound A-38, 5-chloro-1-hydroxy-3-(indol-3-yl)methyl-6-isobutyl-1,2-dihydropyrazin-2-one] here?
The IC50 was 6 µg/mL (≈ 18.1 µM).

For `CCOc1c(Cc2c[nH]c3ccccc23)[nH]c(=O)c(CC(C)C)[n+]1[O-]` [Compound E-12, 5-Ethoxy-6-(indol-3-yl)methyl-3-isobutyl-1,2-dihydropyrazin-2-one 4-oxide], which IC50 is on record?
Its IC50 is 8 µg/mL (≈ 23.4 µM).

Which IC50 does the source give for `CC(C)C[C@@H]1C(=O)N[C@@H](Cc2c[nH]c3ccccc23)C(=O)N1O` [Compound A-30a, (3S,6R)-1-Hydroxy-3-(indol-3-yl)methyl-6-isobutylpiperazine-2,5-dione] here?
Its IC50 is 10 µg/mL (≈ 31.7 µM).

Which IC50 does the source give for `COc1c(Cc2c[nH]c3ccccc23)[nH]c(=O)c(Cc2ccccc2)[n+]1[O-]` [Compound E-6d, 3-Benzyl-6-(indol-3-yl)methyl-5-methoxy-1,2-dihydropyrazin-2-one 4-oxide] here?
The IC50 was 5 µg/mL (≈ 13.8 µM).

`COc1ccc2[nH]cc(Cc3[nH]c(=O)c(CC(C)C)[n+]([O-])c3OC)c2c1` [Compound E-34h, 3-Isobutyl-5-methoxy-6-[(5-methoxy)indol-3-yl]methyl-1,2-dihydropyrazin-2-one 4-oxide] was tested. Which IC50 did it give?
The IC50 was 5 µg/mL (≈ 14 µM).

`CC(=O)Nc1c(Cc2c[nH]c3ccccc23)[nH]c(=O)c(CC(C)C)[n+]1[O-]` [Compound A-63, 5-acetamino-6-(indol-3-yl)methyl-3-isobutyl1,2-dihydropyrazin-2-one 4-oxide] was tested. Which IC50 did it give?
The IC50 was 30 µg/mL (≈ 84.6 µM).

For `COc1c(Cc2c[nH]c3ccc(Br)cc23)[nH]c(=O)c(CC(C)C)[n+]1[O-]` [Compound E-34c, 6-[(5-Bromo)indol-3-yl]methyl-3-isobutyl-5-methoxy-1,2-dihydropyrazin-2-one 4-oxide], which IC50 is on record?
The IC50 was 5 µg/mL (≈ 12.3 µM).

How did the IC50 turn out when `COC1=N[C@@H](CC(C)C)C(=O)N/C1=C\c1c[nH]c2ccccc12` [Compound A-17, (3S,Z)-6-(Indol-3-yl)methylidene-3-isobutyl-5-methoxy-1,2,3,6-tetrahydropyrazin-2-one] was run?
The IC50 was 15 µg/mL (≈ 48.2 µM).

`CC(C)Cc1c(=O)[nH]c(Cc2c[nH]c3ccccc23)c(N)[n+]1[O-]` [Compound A-62, 5-amino-6-(indol-3-yl)methyl-3-isobutyl-1,2-dihydropyrazin-2-one 4-oxide] was tested. Which IC50 did it give?
The IC50 was 12 µg/mL (≈ 38.4 µM).

With `COC(=O)n1cc(Cc2nc(Cl)c(CC(C)C)n(OC)c2=O)c2ccccc21` [Compound A-47, 5-Chloro-6-isobutyl-3-[(1-methoxycarbonyl)indol-3-yl]methyl-1-methoxy-12,-dihydropyrazin-2-one] as the compound, how does the IC50 read?
The IC50 was 25 µg/mL (≈ 61.9 µM).

With `COc1c(Cc2c[nH]c3ccccc23)nc(Cl)c(CC(C)C)[n+]1[O-]` [Compound A-46, 3-chloro-5-(indol-3-yl)methyl-2-isobutyl-6-methoxypyrazine-1-oxide] as the compound, how does the IC50 read?
Its IC50 is 30 µg/mL (≈ 86.7 µM).

With `CSc1c(Cc2c[nH]c3ccccc23)[nH]c(=O)c(CC(C)C)[n+]1[O-]` [Compound E-57c, 6-(Indol-3-yl)methyl-3-isobutyl-5-methylthio-1,2-dihydropyrazin-2-one 4-oxide] as the compound, how does the IC50 read?
Its IC50 is 10 µg/mL (≈ 29.1 µM).

How did the IC50 turn out when `COc1c(Cc2cn(C)c3ccccc23)nc(OCc2ccccc2)c(CC(C)C)[n+]1[O-]` [Compound E-67a, 3-Benzyloxy-2-isobutyl-5-[(1-methyl)indol-3-yl]methyl-6-methoxypyrazine 1-oxide] was run?
The IC50 was 10 µg/mL (≈ 23.2 µM).

Which IC50 does the source give for `CC(C)Cc1c(=O)[nH]c(Cc2c[nH]c3ccccc23)c(Cl)[n+]1[O-]` [Compound E-57a, 5-Chloro-6-(indol-3-yl)methyl-3-isobutyl-1,2-dihydropyrazin-2-one 4-oxide] here?
Its IC50 is 10 µg/mL (≈ 30.1 µM).

For `COc1ccc2[nH]c(C)c(Cc3[nH]c(=O)c(CC(C)C)[n+]([O-])c3OC)c2c1` [Compound E-34k, 3-Isobutyl-5-methoxy-6-[(5-methoxy-2-methyl)indol-3-yl]methyl-1,2-dihydropyrazin-2-one 4-oxide], which IC50 is on record?
Its IC50 is 2 µg/mL (≈ 5.38 µM).

Which IC50 does the source give for `CC(C)C[C@@H]1C(=O)N(C)[C@@H](Cc2c[nH]c3ccccc23)C(=O)N1O` [Compound E-72a, (3S,6R)-1-Hydroxy-3-(indol-3-yl)methyl-6-isobutyl-4-methylpiperazine-2,5-dione] here?
Its IC50 is 0.8 µg/mL (≈ 2.43 µM).

Which IC50 does the source give for `COc1c(Cc2c[nH]c3ccc(F)cc23)[nH]c(=O)c(CC(C)C)[n+]1[O-]` [Compound E-34a, 6-[(5-Fluoro)indol-3-yl]methyl-3-isobutyl-5-methoxy-1,2-dihydropyrazin-2-one 4-oxide] here?
Its IC50 is 10 µg/mL (≈ 29 µM).

The compounds below were run on releasing of lysosome from the neutrocytes of rat (assay: Inhibitory effect against the releasing of lysosome from the neutrocytes of rat). Conditions: 0.25 h; rat neutrocytes 5×10^5 cells/ml; FMLP 10^-6 M + cytochalasin B 5 μg/ml; 15 minutes; OD550; read-out: 50% inhibitory concentration (IC50), releasing of lysosome.
Type: cell-based
Procedure: Inhibitory effect against the releasing of lysosome from the neutrocytes of rat
The neutrocytes of rat were samples from the abdominal cavity of the reat 16 hours after the administration of 10 ml of 1%-casein solution (physiological saline solution).
Reaction of the releasing of lysosome from the neutrocytes of rat was determined by means of the method described in an article by T. Matsumoto, K. Takeshige and S. Minakami: Biochemical and Biophysical Research Communications, Vol. 88, No. 3, pp. 974-979, (1979).
The neutrocytes being sampled were added to Hank's soluiton so as to make the concentraiton thereof as 5×10^5 cells/ml, and the test compound of indole derivative of the present invention was added thereto to make the test group sample. On the other hand, water was added in place of the indole derivative of the present invention to make the control group sample. Each of the test group sample and the control group sample was subjected to pre-incubation at 37° C. for 1 minute.
As to the stimulating agents, 10^-6 M of FMLP (formylmethionyl leucyl phenylalanine) and 5 μg/ml of cytochalasin B were added to the solution. Thus, obtained mixture of the solution was reacted by incubating for 15 minutes. After the incubation, the mixture of the solution was subjected to centrifugation at 2,000 rpm for 10 minutes. The supernatant (0.2 ml) was admixed with 0.5 ml of 0.1M-acetic acid buffer solution (pH 4.5) in which 0.2 mM of phenolphthalein glucuronic acid was dissolved. Then the resulting mixture of the solutions was reacted at 37° C. for 5 hours by incubation. After the reaction, 1N-NaOH solution was added to the reaction mixture so as to make the pH thereof to pH 8-9, and the optical absorbance of both test group samples and control group samples were determined at 550 nm (OD550).
The 50% inhibitory concentration (IC50) values were obtained by calculating as the ratio of OD550 of the test group samples to that of the control group samples.

`COc1nc(CC(C)C)c(OC(C)=O)nc1Cc1c[nH]c2ccccc12` [Compound A-20, 2-Acetoxy-6-(indol-3-yl)methyl-3-isobutyl-5-methoxypyrazine] was tested. Which IC50 did it give?
Its IC50 is 20 µg/mL.
